Patent US20100216734A1, “MODULATION OF NEUROGENESIS BY NOOTROPIC AGENTS” (BrainCells, Inc., priority 2006, published 2010)
“And” between values parts separate entries of the source, which are not always exact repeats. Equal values may be shown once. “Also recorded” adds a separate entry of the source. Where a name gives a salt, the structure may show the parent alone. Read-outs that look alike come from different tables or passages of the source. Peptide text beside a SMILES is read from it. * marks the point of attachment. PhAc = O=C(Cc1ccccc1)*

Key:
mGluR3 = mGluR3 (Homo sapiens, UniProt Q14832); details: read-out: IC50 against mGluR3; cited from earlier work
mGluR3, sequence (Q14832 23-879): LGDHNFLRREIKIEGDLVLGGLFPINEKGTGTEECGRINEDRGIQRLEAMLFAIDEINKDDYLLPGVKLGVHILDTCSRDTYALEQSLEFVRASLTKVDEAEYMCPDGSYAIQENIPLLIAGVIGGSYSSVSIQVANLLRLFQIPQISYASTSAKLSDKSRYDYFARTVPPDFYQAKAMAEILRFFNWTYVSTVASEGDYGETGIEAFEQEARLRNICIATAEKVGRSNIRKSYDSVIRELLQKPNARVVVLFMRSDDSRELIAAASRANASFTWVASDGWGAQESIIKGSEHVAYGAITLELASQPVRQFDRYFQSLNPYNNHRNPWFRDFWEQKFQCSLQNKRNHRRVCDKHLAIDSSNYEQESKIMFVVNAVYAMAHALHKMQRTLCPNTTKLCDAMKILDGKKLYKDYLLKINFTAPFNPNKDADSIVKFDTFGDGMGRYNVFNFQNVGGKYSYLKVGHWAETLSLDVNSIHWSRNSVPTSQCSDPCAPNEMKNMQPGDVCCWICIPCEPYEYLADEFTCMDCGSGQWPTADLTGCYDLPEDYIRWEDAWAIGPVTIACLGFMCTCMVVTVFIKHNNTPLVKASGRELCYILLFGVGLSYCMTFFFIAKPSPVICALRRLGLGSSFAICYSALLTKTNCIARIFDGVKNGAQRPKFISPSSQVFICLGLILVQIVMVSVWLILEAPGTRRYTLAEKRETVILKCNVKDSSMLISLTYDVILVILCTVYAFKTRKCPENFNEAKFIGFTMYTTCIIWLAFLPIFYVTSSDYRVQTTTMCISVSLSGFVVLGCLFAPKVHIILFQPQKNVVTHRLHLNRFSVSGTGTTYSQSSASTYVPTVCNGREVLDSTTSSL

[1] = test system: Group I or Group III receptors; details: at sub-mM concentrations; cited from earlier work
mGluR2 = mGluR2 (Homo sapiens, UniProt Q14416); details: read-out: IC50 against mGluR2; cited from earlier work
mGluR2, sequence (Q14416 19-872): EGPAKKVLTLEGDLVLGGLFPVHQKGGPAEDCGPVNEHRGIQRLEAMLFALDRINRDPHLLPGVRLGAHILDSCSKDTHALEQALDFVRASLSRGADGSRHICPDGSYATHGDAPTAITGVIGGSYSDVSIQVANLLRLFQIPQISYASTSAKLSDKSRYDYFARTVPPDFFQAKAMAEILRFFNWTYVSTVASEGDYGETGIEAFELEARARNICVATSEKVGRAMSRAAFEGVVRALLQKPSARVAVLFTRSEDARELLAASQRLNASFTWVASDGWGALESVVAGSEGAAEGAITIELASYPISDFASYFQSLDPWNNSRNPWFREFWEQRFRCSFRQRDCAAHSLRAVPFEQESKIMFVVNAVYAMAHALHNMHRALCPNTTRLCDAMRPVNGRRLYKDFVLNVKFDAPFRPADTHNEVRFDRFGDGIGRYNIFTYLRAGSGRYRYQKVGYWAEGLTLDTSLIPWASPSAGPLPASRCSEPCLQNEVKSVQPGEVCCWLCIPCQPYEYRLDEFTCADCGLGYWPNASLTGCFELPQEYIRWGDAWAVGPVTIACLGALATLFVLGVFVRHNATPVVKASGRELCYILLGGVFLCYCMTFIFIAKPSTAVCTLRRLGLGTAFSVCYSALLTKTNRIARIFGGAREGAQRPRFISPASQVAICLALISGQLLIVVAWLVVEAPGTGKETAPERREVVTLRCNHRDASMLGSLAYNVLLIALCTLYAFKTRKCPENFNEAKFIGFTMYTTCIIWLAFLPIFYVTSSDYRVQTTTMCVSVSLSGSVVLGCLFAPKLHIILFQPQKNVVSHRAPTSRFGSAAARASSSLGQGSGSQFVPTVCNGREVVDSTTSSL

[2] = test system: human neural stem cells (hNSCs); test: Neuronal differentiation of human neural stem cells (TUJ-1 staining); format: cell-based; details: for effect on neuronal differentiation, agent alone (in words): dose response of agent alone; for maximal percent neuronal differentiation in the presence of 1.0 μM NBQX: with 1.0 μM NBQX
[3] = test system: KA, AMPA, and NMDA iGlu receptors; details: cited from earlier work
human mGlu3 receptors = human mGlu3 receptors (Homo sapiens, UniProt Q14832); details: in vitro; low nanomolar range; read-out: EC50 against human mGlu3 receptors; cited from earlier work
human mGlu3 receptors, sequence (Q14832 23-879): as the sequence (Q14832 23-879) above

human mGlu2 receptors = human mGlu2 receptors (Homo sapiens, UniProt Q14416); details: in vitro; low nanomolar range; read-out: EC50 against human mGlu2 receptors; cited from earlier work
human mGlu2 receptors, sequence (Q14416 19-872): as the sequence (Q14416 19-872) above

male F344 rats = test: Novel object recognition in rat; format: in vivo; details: 0.5 mg/kg/day i.p. once daily for 7 days, p<0.05
Method: SGS-111 (0.5 mg/kg/day, i.p.) was administered to male F344 rats (n=12) once daily for 7 days. Animals were tested after 7 days of drug administration.
Shown in FIG. 9 is the mean number of visits to the novel object for vehicle and SGS-111 treated rats (±SEM). The y-axis represents mean visits. The x-axis indicates treatment. […] This difference is indicative of cognitive enhancement, an in vivo behavioral consequence of enhanced neurogenesis by SGS-111.

[4] = hNSCs, % of neuronal positive control
[5] = hNSCs, agent run independently, % of neuronal positive control, basal media subtracted, read-out: EC50 for neuronal differentiation, agent alone
[6] = hNSCs, test agent dose response with constant 0.316 μM AMPA, read-out: EC50 for neuronal differentiation in combination with 0.316 μM AMPA
[7] = Homo sapiens, Neural stem cell, hNSCs, agent run independently, % of neuronal positive control, basal media subtracted, read-out: EC50 for neuronal differentiation, agent alone

With `NC1(C(=O)O)CCc2cc(P(=O)(O)O)ccc21` (racemic) [APICA, (RS)-1-amino-5-phosphonoindan-1-carboxylic acid] as the compound, how does the IC50 (mGluR3) read?
The IC50 was ~30 µM.

What about the “activity against Group I or Group III receptors (in words)” value [1] of the same compound?
Its value is “no appreciable activity”.

And the IC50 (mGluR2)?
The IC50 was ~30 µM.

What does the source list for `Cc1onc(O)c1CC(N)C(=O)O` (stereo not drawn) [AMPA, alpha-amino-3-hydroxy-5-methyl-4-isoxazolepropionic acid]?
EC50 ([2]; Homo sapiens, Neural stem cell, read-out: EC50 for neuronal differentiation in the presence of 1.0 μM NBQX, hNSCs, with 1.0 μM AMPA antagonist NBQX): > 32 µM; Emax ([2]; Homo sapiens, Neural stem cell, read-out: maximum percent neuronal differentiation (maximum efficacy), agent alone): 50%; effect of AMPA at 0.316 μM alone on neuronal differentiation (in words) ([2]; hNSCs, AMPA 0.316 μM): failed to stimulate neuronal differentiation; also recorded: no effects on neuronal differentiation; effect on neuronal differentiation, agent alone (in words) ([2]; hNSCs): promoted neuronal differentiation; maximal percent neuronal differentiation in the presence of 1.0 μM NBQX [2, 4]: 7%

For `CC(=O)N1CCN(NC(=O)c2ccc(F)cc2)CC1` [FK-960], which EC50 [2, 5] is on record?
The EC50 was 7 µM.

What about the “effect on neuronal differentiation, agent alone (in words)” value ([2]; hNSCs) of the same compound?
The value was “promoted neuronal differentiation”.

For `N[C@](CC1c2ccccc2Oc2ccccc21)(C(=O)O)[C@H]1C[C@@H]1C(=O)O` [LY341495, (2S)-2-amino-2-(1S,2S-2-carboxycycloprop-1-yl)-3-(xanth-9-yl) propanoic acid], which “activity against KA, AMPA, and NMDA iGlu receptors (in words)” value [3] is on record?
Its value is “substantially inactive”.

With `N[C@@]1(C(=O)O)CO[C@H]2[C@H](C(=O)O)[C@H]21` [LY379268, (−)-2-oxa-4-aminobicyclohexane-4,6-dicarboxylic acid] as the compound, how does the EC50 (human mGlu3 receptors) read?
The EC50 was < 0.01 µM.

And the EC50 (human mGlu2 receptors)?
The EC50 was < 0.01 µM.

Which “effect on neuronal differentiation in the presence of 0.316 μM AMPA (in words)” value ([2]; hNSCs, constant 0.316 μM AMPA) does the source give for `NC(=O)COc1c(F)cc(SCCNS(=O)(=O)c2ccccc2)cc1F` [PEPA] here?
Its value is “stimulation of neuronal differentiation that was dose-dependent upon PEPA”.

And the “effect on neuronal differentiation, agent alone (in words)” value ([2]; hNSCs)?
Its value is “No effect on neuronal differentiation; also recorded: did not significantly enhance neuronal differentiation”.

What about the EC50 [2, 6] of the same compound?
Its EC50 is 0.69 µM.

Which EC50 ([2]; Homo sapiens, Neural stem cell, hNSCs, with 1.0 μM AMPA antagonist NBQX, read-out: EC50 for neuronal differentiation in the presence of 1.0 μM NBQX) does the source give for `NC(=O)CN1CCCC1=O` [Piracetam] here?
Its EC50 is > 32 µM.

What about the Emax ([2]; Homo sapiens, Neural stem cell, hNSCs, % of neuronal positive control, read-out: maximum percent neuronal differentiation (maximum efficacy), agent alone) of the same compound?
The Emax was 60%.

And the “effect on neuronal differentiation, agent alone (in words)” value ([2]; hNSCs)?
The value was “promoted neuronal differentiation”.

What about the “maximal percent neuronal differentiation in the presence of 1.0 μM NBQX” value [2, 4] of the same compound?
Its value is 38%.

With `CCOC(=O)CNC(=O)[C@@H]1CCCN1C(=O)Cc1ccccc1` [SGS-111] (PhAc-Pro-Gly-OEt) as the compound, how does the “maximum percent neuronal differentiation (maximum efficacy), agent alone” value [2, 4] read?
Its value is ~40%.

And the “maximum percent neuronal differentiation (maximum efficacy) in combination with 0.316 μM AMPA” value ([2]; hNSCs, % of neuronal positive control, constant 0.316 μM AMPA)?
The value was “approximately 60%”.

And the EC50 [2, 5]?
The EC50 was 7.2 µM.

And the “effect on neuronal differentiation in the presence of 0.316 μM AMPA (in words)” value ([2]; hNSCs, constant 0.316 μM AMPA)?
Its value is “a greater number of neurons at the highest concentration tested”.

What about the EC50 [2, 6] of the same compound?
Its EC50 is 4.2 µM.

What about the “number of visits to / preference for the novel object versus familiar object” value (male F344 rats) of the same compound?
Its value is “statistically significant increase”.

What does the source list for `CC(=O)NCCCS(=O)(=O)O` [acamprosate]?
EC50 [2, 7]: 16.4 µM; EC50 [2, 5]: 9.68 µM

For `CCCCN(CC)c1nc(C)nc2c1c(C)c(C)n2-c1c(C)cc(C)cc1C` [antalarmin], which EC50 [2, 7] is on record?
Its EC50 is 4.68 µM.

For `O=C1CC2(CCCC2)CC(=O)N1CCCCN1CCN(c2ncccn2)CC1` [buspirone], which EC50 [2, 7] is on record?
Its EC50 is 7.43 µM.

For `O=C1CC[C@H](C(=O)N2CCCCC2)N1` [fasoracetam], which EC50 [2, 7] is on record?
The EC50 was 3.13 µM.

For `COc1ccc2[nH]cc(CCNC(C)=O)c2c1` [melatonin], which EC50 [2, 7] is on record?
The EC50 was 320 µM.

For `COC(=O)C(c1ccccc1)C1CCCCN1` (stereo not shown) [methylphenidate HCl, methylphenidate hydrochloride], which EC50 ([2]; Homo sapiens, Neural stem cell, read-out: EC50 for neuronal differentiation, agent alone, hNSCs, agent run independently, % of neuronal positive control, basal media subtracted) is on record?
The EC50 was 1.29 µM.

Which results are given for `NCC1CC(=O)N(Cc2ccccc2)C1` (stereo not shown) [nebracetam]?
Emax ([2]; Homo sapiens, Neural stem cell, hNSCs, % of neuronal positive control, constant 0.316 μM AMPA, read-out: maximum percent neuronal differentiation (maximum efficacy) in combination with 0.316 μM AMPA): 63%; effect on neuronal differentiation in the presence of 0.316 μM AMPA (in words) ([2]; hNSCs, constant 0.316 μM AMPA): promoted dose dependent neuronal differentiation; effect on neuronal differentiation, agent alone (in words) ([2]; hNSCs): failed to stimulate neuronal differentiation; also recorded: no effect on neuronal differentiation; EC50 [2, 6]: 0.28 µM and 0.97 µM

For `NC(=O)c1ncn([C@@H]2O[C@H](CO)[C@@H](O)[C@H]2O)n1` [ribavirin], which EC50 [2, 7] is on record?
The EC50 was 5.14 µM.

With `CCCc1nc2c(C)cc(-c3nc4ccccc4n3C)cc2n1Cc1ccc(-c2ccccc2C(=O)O)cc1` [telmisartan] as the compound, how does the EC50 [2, 7] read?
Its EC50 is 2.75 µM.

For `COC(=O)[C@@H]1[C@H]2C[C@H]3c4[nH]c5ccccc5c4CCN3C[C@@H]2CC[C@@H]1O` [yohimbine], which EC50 [2, 7] is on record?
Its EC50 is 0.62 µM.
